Read-outs that look alike come from different tables or passages of the source.
Key:
[1] = test system: Liver cancer line SK-HEP-1 cells;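 also: luminescent signal read after 72 h compound exposure at 37 °C under 5% CO2, with medium-only wells serving as blank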
Method: (§1) To measure the cell inhibition effect of compounds and synergy effect of test articles on ten (10) cell lines using standard CTG assay.
(§2) 7) Using complete cell medium, adjust the volume of the suspension to achieve a cell concentration.
(§3) b. A549, T47D, SK-OV-3, MKN45, SK-Hep-1, HT-29, Capan-1, 786-O and LNCaP cell line, for compounds and vehicle groups, the seeding density of cell lines is 3000 cells/80 µL per well. For blank groups, add 100 µL medium. For PBS groups, add 100 µL PBS.
(§4) 8) Incubate the U87MG, A549, T47D, SK-OV-3, MKN45, SK-Hep-1, HT-29, Capan-1, 786-O and LNCaP cells overnight at 37° C./5% CO2.
(§5) Solid compound of cis-platinum was solubilized in PBS to a stock solution of 3.333 mM.
(§6) Final volume is 100 µL per well at this point.
(§7) 5) Incubate the plates at 37° C./5% CO2 for 72 hours.
(§8) 1) Incubate the plates at room temperature and away from light for 30 minutes.
(§9) 3) Add 100 µL /well of CellTiter-Glo® Reagent in each well. Avoid light.
(§10) 4) Mix contents for 2 minutes on an orbital shaker.
(§11) 5) Incubate plate at room temperature for 10 minutes to stabilize the luminescent signal.
6) Read plates in Envision.

[2] = test system: kidney cancer line 786-O cells;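 also: luminescence read-out after adding CellTiter-Glo reagent, with cells incubated at 37 °C under 5% CO2 during compound exposure, part of a ten cell line synergy study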
[3] = test system: pancreatic cancer line Capan-1 cells; assay: CTG (CellTiter-Glo) cell viability assay, 6×6 combo matrix, 72 h, Capan-1; type: cell-based; conditions: for Relatively Cell inhibition of vehicle control(%): Capan-1
Procedure, shortened: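 Capan-1 cells were seeded at 3000 cells per well and incubated overnight at 37 °C/5% CO2. They were then treated with compounds in a 6×6 combination matrix for 72 h at 37 °C/5% CO2. Viability was read by CellTiter-Glo luminescence to assess inhibition and synergy.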

[4] = test system: ovarian cancer line SK-OV3 cells;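 also: luminescent signal read after CellTiter-Glo addition, cells exposed to compounds for 72 h at 37 °C under 5% CO2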
[5] = test system: glioblastoma line U87MG cells; assay: CTG (CellTiter-Glo) cell viability assay, 6×6 combo matrix, 72 h, U87MG; conditions: Homo sapiens, U-87 MG;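 also: U87MG cells seeded at 2000 per well, exposed 72 h, viability read by CellTiter-Glo luminescence, inhibition expressed relative to vehicle-treated wells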
[6] = test system: colorectal cancer line HT29 cells; assay: CTG (CellTiter-Glo) cell viability assay, 6×6 combo matrix, 72 h, HT29; conditions: for Relatively Cell inhibition of vehicle control(%): HT29;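 as to all read-outs here: cells exposed to compounds for 72 hours at 37 °C under 5% CO2, then viability read as luminescence after adding CellTiter-Glo Reagent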
Method: as §1, §2, §3, §4, §5, §6, §7, §8, §9, §10, §11
6) Read plates in Envision.

[7] = test system: breast cancer line T47D cells; assay: CTG (CellTiter-Glo) cell viability assay, 6×6 combo matrix, 72 h, T47D; conditions: Homo sapiens;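 also: luminescence read-out after 72 h at 37 °C under 5% CO2, with medium-only wells as blanks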
Method: as §1, §2, §3, §4, §5, §6, §7, §8, §9, §10, §11
6) Read plates in Envision.

[8] = test system: lung adenocarcinoma line A549 cells; assay: CTG (CellTiter-Glo) cell viability assay, 6×6 combo matrix, 72 h, A549; conditions: A549;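 also: luminescent ATP readout with CellTiter-Glo after compound exposure, used to assess growth inhibition and combination synergy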
Method: as §1, §2
A549, T47D, SK-OV-3, MKN45, SK-Hep-1, HT-29, Capan-1, 786-O and LNCaP cell line, for compounds and vehicle groups, the seeding density of cell lines is 3000 cells/80 µL per well. For blank groups, add 100 µL medium. For PBS groups, add 100 µL PBS.
as §4, §5, §6, §7, §8, §9, §10, §11
6) Read plates in Envision.

[9] = test system: prostate adenocarcinoma line LNCap cells; assay: CTG (CellTiter-Glo) cell viability assay, 6×6 combo matrix, 72 h, LNCaP; conditions: Homo sapiens, LNCaP;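 also: luminescence signal read after adding CellTiter-Glo reagent, with cells exposed to compounds for 72 h at 37 °C under 5% CO2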
Method: as §1, §2, §3, §4, §5, §6, §7, §8, §9, §10, §11
6) Read plates in Envision.

[10] = test system: prostate adenocarcinoma line LNCap cells;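 also: luminescence signal read after adding CellTiter-Glo reagent, with cells exposed to compounds for 72 h at 37 °C under 5% CO2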
Method: as §1, §2, §3, §4, §5, §6, §7, §8, §9, §10, §11
6) Read plates in Envision.

[11] = test system: kidney cancer line 786-O cells; assay: CTG (CellTiter-Glo) cell viability assay, 6×6 combo matrix, 72 h, 786-O; conditions: for Relatively Cell inhibition of vehicle control(%): 786-O;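 as to all read-outs here: luminescence read-out after adding CellTiter-Glo reagent, with cells incubated at 37 °C under 5% CO2 during compound exposure, part of a ten cell line synergy study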
[12] = test system: ovarian cancer line SK-OV3 cells; assay: CTG (CellTiter-Glo) cell viability assay, 6×6 combo matrix, 72 h, SK-OV-3; conditions: SK-OV-3;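 also: luminescent signal read after CellTiter-Glo addition, cells exposed to compounds for 72 h at 37 °C under 5% CO2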
[13] = test system: Liver cancer line SK-HEP-1 cells; assay: CTG (CellTiter-Glo) cell viability assay, 6×6 combo matrix, 72 h, SK-Hep-1; conditions: Homo sapiens;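 also: luminescent signal read after 72 h compound exposure at 37 °C under 5% CO2, with medium-only wells serving as blank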
Method: as §1, §2, §3, §4, §5, §6, §7, §8, §9, §10, §11
6) Read plates in Envision.

[14] = Homo sapiens, HT-29, read-out: Relatively Cell inhibition of vehicle control(%)
[15] = Tax 8 nM only (myricetin matrix)
[16] = Tax 40 nM only (myricetin matrix)
[17] = Tax 200 nM only (myricetin matrix)
[18] = Tax 1000 nM only (myricetin matrix)
[19] = Homo sapiens, 786-0, read-out: Relatively Cell inhibition of vehicle control

CC(=O)O[C@H]1C(=O)[C@@]2(C)[C@H]([C@H](OC(=O)c3ccccc3)[C@]3(O)C[C@H](OC(=O)[C@H](O)[C@@H](NC(=O)c4ccccc4)c4ccccc4)C(C)=C1C3(C)C)[C@]1(OC(C)=O)CO[C@@H]1C[C@@H]2O [taxol, paclitaxel]
inhibition [1]: 0.78% | inhibition [2]: 3.15% | inhibition at […] ([3]; Homo sapiens, CAPAN-1, taxol 1.6 nM only, read-out: Relatively Cell inhibition of vehicle control): 17.2% | inhibition at 0.008 µM ([3]; Homo sapiens, CAPAN-1, taxol 8 nM only, read-out: Relatively Cell inhibition of vehicle control): 54.3% | inhibition at 0.04 µM ([3]; Homo sapiens, CAPAN-1, taxol 40 nM only, read-out: Relatively Cell inhibition of vehicle control): 65.8% | inhibition at 0.2 µM ([3]; Homo sapiens, CAPAN-1, taxol 200 nM only, read-out: Relatively Cell inhibition of vehicle control): 65.4% | inhibition at 1 µM ([3]; Homo sapiens, CAPAN-1, taxol 1000 nM only, read-out: Relatively Cell inhibition of vehicle control): 67.2% | Relatively Cell inhibition of vehicle control(%) ([3]; Tax 8 nM only): 51.97% | Relatively Cell inhibition of vehicle control(%) ([3]; Tax 40 nM only): 62.89% | Relatively Cell inhibition of vehicle control(%) ([3]; Tax 200 nM only): 63.24% | Relatively Cell inhibition of vehicle control(%) ([3]; Tax 1000 nM only): 64.00% | inhibition [4]: 17.4% | inhibition at 0.008 µM ([5]; 72 h, read-out: Relatively Cell inhibition of vehicle control(%), U87MG, 8 nM taxol only (LB-1 0), 72 h): 42.7% | inhibition at 0.04 µM ([5]; 72 h, read-out: Relatively Cell inhibition of vehicle control(%), U87MG, 40 nM taxol only (LB-1 0), 72 h): 53.9% | inhibition at 0.2 µM ([5]; 72 h, read-out: Relatively Cell inhibition of vehicle control(%), U87MG, 200 nM taxol only (LB-1 0), 72 h): 67.8% | inhibition at 1 µM ([5]; 72 h, read-out: Relatively Cell inhibition of vehicle control(%), U87MG, 1000 nM taxol only (LB-1 0), 72 h): 66.2% | inhibition at 0.008 µM ([5]; read-out: Relatively Cell inhibition of vehicle control(%), taxol 8 nM only): 46.5% | inhibition at 0.04 µM ([5]; read-out: Relatively Cell inhibition of vehicle control(%), taxol 40 nM only): 60.6% | inhibition at 0.2 µM ([5]; read-out: Relatively Cell inhibition of vehicle control(%), taxol 200 nM only): 72.2% | inhibition at 1 µM ([5]; read-out: Relatively Cell inhibition of vehicle control(%), taxol 1000 nM only): 69.8% | inhibition at 0.008 µM [6, 14]: 67.9% | inhibition at 0.04 µM [6, 14]: 83.4% | inhibition at 0.2 µM [6, 14]: 83.1% | inhibition at 1 µM [6, 14]: 82% | Relatively Cell inhibition of vehicle control(%) ([6]; Tax 8 nM only (Myr 0)): 73.73% | Relatively Cell inhibition of vehicle control(%) ([6]; Tax 40 nM only (Myr 0)): 80.46% | Relatively Cell inhibition of vehicle control(%) ([6]; Tax 200 nM only (Myr 0)): 81.35% | Relatively Cell inhibition of vehicle control(%) ([6]; Tax 1000 nM only (Myr 0)): 79.03% | inhibition at 0.008 µM ([7]; read-out: Relatively Cell inhibition of vehicle control(%), T47D, 8 nM taxol only (LB-1 0)): 33.2% | inhibition at 0.008 µM ([7]; read-out: Relatively Cell inhibition of vehicle control(%), T47D, 8 nM taxol only (myricetin 0)): 40.8% | inhibition at 0.04 µM ([7]; read-out: Relatively Cell inhibition of vehicle control(%), T47D, 40 nM taxol only (LB-1 0)): 42.2% | inhibition at 0.04 µM ([7]; read-out: Relatively Cell inhibition of vehicle control(%), T47D, 40 nM taxol only (myricetin 0)): 48.6% | inhibition at 0.2 µM ([7]; read-out: Relatively Cell inhibition of vehicle control(%), T47D, 200 nM taxol only (LB-1 0)): 42% | inhibition at 0.2 µM ([7]; read-out: Relatively Cell inhibition of vehicle control(%), T47D, 200 nM taxol only (myricetin 0)): 48.5% | inhibition at 1 µM ([7]; read-out: Relatively Cell inhibition of vehicle control(%), T47D, 1000 nM taxol only (LB-1 0)): 38% | inhibition at 1 µM ([7]; read-out: Relatively Cell inhibition of vehicle control(%), T47D, 1000 nM taxol only (myricetin 0)): 45.8% | Relatively Cell inhibition of vehicle control(%) ([8]; Tax 8 nM only (LB-1 matrix)): 55.11% | Relatively Cell inhibition of vehicle control(%) [8, 15]: 53.76% | Relatively Cell inhibition of vehicle control(%) ([8]; Tax 40 nM only (LB-1 matrix)): 68.79% | Relatively Cell inhibition of vehicle control(%) [8, 16]: 68.03% | Relatively Cell inhibition of vehicle control(%) ([8]; Tax 200 nM only (LB-1 matrix)): 77.44% | Relatively Cell inhibition of vehicle control(%) [8, 17]: 75.24% | Relatively Cell inhibition of vehicle control(%) ([8]; Tax 1000 nM only (LB-1 matrix)): 76.64% | Relatively Cell inhibition of vehicle control(%) [8, 18]: 77.27% | inhibition at 0.008 µM ([9]; read-out: Relatively Cell inhibition of vehicle control(%), taxol 8 nM only (LB-1 plate)): 54% | inhibition at 0.008 µM ([9]; read-out: Relatively Cell inhibition of vehicle control(%), taxol 8 nM only (myricetin plate)): 62.6% | inhibition at 0.04 µM ([9]; read-out: Relatively Cell inhibition of vehicle control(%), taxol 40 nM only (LB-1 plate)): 59.2% | inhibition at 0.04 µM ([9]; read-out: Relatively Cell inhibition of vehicle control(%), taxol 40 nM only (myricetin plate)): 65.5% | inhibition at 0.2 µM ([9]; read-out: Relatively Cell inhibition of vehicle control(%), taxol 200 nM only (LB-1 plate)): 56.4% | inhibition at 0.2 µM ([9]; read-out: Relatively Cell inhibition of vehicle control(%), taxol 200 nM only (myricetin plate)): 62.2% | inhibition at 1 µM ([9]; read-out: Relatively Cell inhibition of vehicle control(%), taxol 1000 nM only (LB-1 plate)): 48.8% | inhibition at 1 µM ([9]; read-out: Relatively Cell inhibition of vehicle control(%), taxol 1000 nM only (myricetin plate)): 55.6% | inhibition [10]: 9.88% | inhibition at 0.008 µM [11, 19]: 12.2% | inhibition at 0.04 µM [11, 19]: 42.6% | inhibition at 0.2 µM [11, 19]: 70% | inhibition at 1 µM [11, 19]: 74.1% | Relatively Cell inhibition of vehicle control(%) ([11]; Tax 8 nM only (LB-1 0)): 12.57% | Relatively Cell inhibition of vehicle control(%) ([11]; Tax 40 nM only (LB-1 0)): 43.18% | Relatively Cell inhibition of vehicle control(%) ([11]; Tax 200 nM only (LB-1 0)): 69.53% | Relatively Cell inhibition of vehicle control(%) ([11]; Tax 1000 nM only (LB-1 0)): 73.05% | Relatively Cell inhibition of vehicle control(%) ([12]; Tax 8 nM only (LB-1 matrix)): 41.59% | Relatively Cell inhibition of vehicle control(%) [12, 15]: 39.88% | Relatively Cell inhibition of vehicle control(%) ([12]; Tax 40 nM only (LB-1 matrix)): 54.31% | Relatively Cell inhibition of vehicle control(%) [12, 16]: 52.55% | Relatively Cell inhibition of vehicle control(%) ([12]; Tax 200 nM only (LB-1 matrix)): 71.38% | Relatively Cell inhibition of vehicle control(%) [12, 17]: 68.68% | Relatively Cell inhibition of vehicle control(%) ([12]; Tax 1000 nM only (LB-1 matrix)): 76.39% | Relatively Cell inhibition of vehicle control(%) [12, 18]: 73.38% | inhibition at 0.008 µM ([13]; SK-HEP1, read-out: Relatively Cell inhibition of vehicle control, taxol 8 nM only (LB-1 table)): 30.6% | inhibition at 0.008 µM ([13]; SK-HEP1, read-out: Relatively Cell inhibition of vehicle control, taxol 8 nM only (myricetin table)): 36% | inhibition at 0.04 µM ([13]; SK-HEP1, read-out: Relatively Cell inhibition of vehicle control, taxol 40 nM only (LB-1 table)): 59.5% | inhibition at 0.04 µM ([13]; SK-HEP1, read-out: Relatively Cell inhibition of vehicle control, taxol 40 nM only (myricetin table)): 62.4% | inhibition at 0.2 µM ([13]; SK-HEP1, read-out: Relatively Cell inhibition of vehicle control, taxol 200 nM only (LB-1 table)): 68.8% | inhibition at 0.2 µM ([13]; SK-HEP1, read-out: Relatively Cell inhibition of vehicle control, taxol 200 nM only (myricetin table)): 65.2% | inhibition at 1 µM ([13]; SK-HEP1, read-out: Relatively Cell inhibition of vehicle control, taxol 1000 nM only (LB-1 table)): 78% | inhibition at 1 µM ([13]; SK-HEP1, read-out: Relatively Cell inhibition of vehicle control, taxol 1000 nM only (myricetin table)): 78.8%

From patent US20230165831A1, “METHOD AND COMPOSITION FOR RENDERING CANCER CELLS SUSCEPTIBLE TO TREATMENT BY TARGETED ONCOGENETIC DRIVERS” (IMPACT BIOLIFE SCIENCE, INC., priority 2021, published 2023)
